For 20 compounds, EC50 results are on record in patent US11306102B2, “1,3-di-substituted ketene compound and application thereof” (BEBETTER MED INC., priority 2017, dated 2022).

Each structure is given as a SMILES string. pEC50: −log10 of the molar value.

The target in this assay is T1, PPARα (Homo sapiens, UniProt Q07869).
T1 construct: expressed in transfected cells; host or cells: Hela cells
T1 sequence (Q07869 1-468): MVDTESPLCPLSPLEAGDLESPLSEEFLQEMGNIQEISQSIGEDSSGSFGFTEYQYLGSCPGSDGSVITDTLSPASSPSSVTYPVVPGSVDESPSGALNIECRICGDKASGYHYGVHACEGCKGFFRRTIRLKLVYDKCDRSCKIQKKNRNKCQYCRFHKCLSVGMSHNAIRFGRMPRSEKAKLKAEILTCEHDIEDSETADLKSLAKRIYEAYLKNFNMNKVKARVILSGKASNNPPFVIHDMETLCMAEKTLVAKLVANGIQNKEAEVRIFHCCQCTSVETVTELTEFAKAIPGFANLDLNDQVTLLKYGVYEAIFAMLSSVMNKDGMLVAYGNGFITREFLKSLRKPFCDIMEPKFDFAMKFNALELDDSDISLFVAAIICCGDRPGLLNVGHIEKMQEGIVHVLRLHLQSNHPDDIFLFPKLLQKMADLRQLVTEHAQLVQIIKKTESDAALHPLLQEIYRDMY
In words: Hela cell/luciferase reporter gene method, PPARα agonist activity. Type of assay: cell-based. The conditions noted are these: Hela cells, pPPRE3-TK-Luciferase reporter, 24 hrs incubation; read-out: agonistic activity on PPAα (EC50). Here is the method: This example measures the biological activity of a PPAR agonist using the Hela cell/luciferase reporter gene method.
The target plasmids PCMV PPARα (Ampicillin+), PCMV PPARγ (Ampicillin+), PCMV PPARδ (Ampicillin+), and pPPRE3-TK-Luciferase (Ampicillin+) were introduced into DH5a competent cells by heat shock treatment, respectively. After being incubated for 1 hour at 37° C. with shaking (180 rpm), the cells were inoculated on LB agar solid medium containing antibiotic Ampicillin, and invertedly cultured at 37° C. for 12-16 hours. Then the monoclonal colony cultured on the medium was taken and inoculated into LB liquid medium for expanded culture. The desired plasmid was extracted from the resulting bacterial solution with a Plasmid Midi Kit (Qiagen; #12143). The plasmid obtained by centrifugation was suspended in TE buffer, and the plasmid concentration was measured and the mixture was stored at −20° C. Hela cells in the exponential phase were seeded in 6-well plates (8-10^5 cells/well), and after 6-8 hours of culture, the cells were transfected using Lipofectamine® 3000 Transfection Reagent (Invitrogen; #L3000015). A plasmid containing a PPAR binding site (peroxisome proliferator response element, PPRE) and a firefly luciferase gene (pPPRE3-TK-Luciferase) and PPAR expression vector were co-transfected into a Hela cell with a total amount of plasmid DNA of 2.5 ug (the mass ratio of each PPAR expression vector is pPPRE:PPARα=6:1, pPPRE:PPARδ=8:1, and pPPRE:PPARγ=2:1) to construct a drug screening cell model for PPAR agonists. PPAR was binded to the ligand and then binded to the peroxisome proliferator response element (PPRE), thereby initiating downstream firefly luciferase expression and its expression intensity was directly proportional to the degree of PPAR activation. The cells after 24 hours transfection were prepared into a cell suspension with a cell concentration of […] by a complete culture solution, and seeded into a 96-well plate with 100 ul per well. After overnight culture, the medium was changed to a medium containing 1% FBS. 10 mM candidate compound stock (1000×) were 4-fold diluted in DMSO for 8 points, then supplemented with medium containing 1% FBS to a final concentration of 50 uM (5×) by addition of 25 μl of 5× compound diluent to each well in different concentration gradients and incubated under 37° C., 5% CO2 incubator for 24 hrs. The 96-well plate was taken out and 30 μl of Bright-Glo™ Luciferase Assay System (Promega #E2620) was added to each well. The Luciferase luminescence intensity was measured by a SynergyH1 full-function microplate detector. The obtained data was used to calculate EC50 using GraphPad Prism 5.0 software to determine the biological activity of the compound.
The agonistic activity of the compounds synthesized in Examples 1-41 on PPAR is represented by EC50 (see Table 1). EC50 refers to the drug concentration at which the compound has a 50% increase in the agonistic activity of the measured PPAR. The compound numbers in Table 1 correspond to the compound numbers in Examples 1-41.
`CNc1ccc(C(=O)/C=C/c2cc(C)c(OC(C)(C)C(=O)O)c(C)c2)c2occc12` [Compound 2, (E)-2-(2,6-dimethyl-4-(3-(4-(methylamino)benzofuran-7-yl)-3-oxoprop-1-en-1-yl)phenoxy)-2-methylpropanoic acid]: the pEC50 was 6.02.

Turning to `Cc1cc(/C=C/C(=O)c2ccc(SCC(C)C)c3ccoc23)cc(C)c1OC(C)(C)C(=O)O` [Compound 9, (E)-2-(4-(3-(4-(isobutylthio)benzofuran-7-yl)-3-oxoprop-1-en-1-yl)-2,6-dimethylphenoxy)-2-methylpropanoic acid], the pEC50 is 7.33.

Turning to `CSc1ccc(C(=O)/C=C/c2cc(C)c(OC(C)(C)C(=O)O)c(C)c2)c2oc(C)nc12` [Compound 20, (E)-2-(2,6-dimethyl-4-(3-(2-methyl-4-(methylthio)benzo[d]oxazol-7-yl)-3-oxoprop-1-en-1-yl)phenoxy)-2-methylpropanoic acid], the pEC50 is 6.78.

For the compound `Cc1cc(/C=C/C(=O)c2ccc3scnc3c2)cc(C)c1OC(C)(C)C(=O)O` [Compound 39, (E)-2-(4-(3-(benzo[d]thiazol-5-yl)-3-oxoprop-1-en-1-yl)-2,6-dimethylphenoxy)-2-methylpropanoic acid], the pEC50 is 6.44.

As to `CCOc1ccc2cc(C(=O)/C=C/c3cc(C)c(OC(C)(C)C(=O)O)c(C)c3)oc2c1` [Compound 44, (E)-2-(4-(3-(6-ethoxylbenzofuran-2-yl)-3-oxoprop-1-en-1-yl)-2,6-dimethylphenoxy)-2-methylpropanoic acid], the negative logarithm of the EC50 (pEC50) was 8.12.

For `Cc1cc(/C=C/C(=O)c2cc3ccccc3o2)cc(C)c1OC(C)(C)C(=O)O` [Compound 49, (E)-2-(4-(3-(benzofuran-2-yl)-3-oxoprop-1-en-1-yl)-2,6-dimethylphenoxy)-2-methylpropanoic acid], the pEC50 was 6.06.

In the case of `CSc1ccc2cc(C(=O)/C=C/c3cc(C)c(OCC(=O)O)c(C)c3)oc2c1` [Compound 57, (E)-2-(2,6-dimethyl-4-(3-(6-(methylthio)benzofuran-2-yl)-3-oxoprop-1-en-1-yl)phenoxy)acetic acid], the pEC50 was 5.93.

Turning to `CSc1cccc2cc(C(=O)/C=C/c3cc(C)c(OC(C)(C)C(=O)O)c(C)c3)oc12` [Compound 58, (E)-2-(2,6-dimethyl-4-(3-(7-(methylthio)benzofuran-2-yl)-3-oxoprop-1-en-1-yl)phenoxy)-2-methylpropanoic acid], the pEC50 is 6.45.

In the case of `CSc1ccc2c(C(C)C)c(C(=O)/C=C/c3cc(C)c(OC(C)(C)C(=O)O)c(C)c3)oc2c1` [Compound 64, (E)-2-(4-(3-(3-isopropyl-6-(methylthio)benzofuran-2-yl)-3-oxoprop-1-en-1-yl)-2,6-dimethylphenoxy)-2-methylpropanoic acid], the pEC50 was 6.98.

Take `CSc1ccc2c(C(F)(F)F)c(C(=O)/C=C/c3cc(C)c(OC(C)(C)C(=O)O)c(C)c3)oc2c1` [Compound 73, (E)-2-(2,6-dimethyl-4-(3-(6-(methylthio)-3-(trifluoromethyl)benzofuran-2-yl)-3-oxoprop-1-en-1-yl)phenoxy)-2-methylpropanoic acid]: the pEC50 was 8.42.

Turning to `CCCSc1ccc2c(C)c(C(=O)/C=C/c3cc(C)c(OC(C)(C)C(=O)O)c(C)c3)oc2c1` [Compound 75, (E)-2-(2,6-dimethyl-4-(3-(3-methyl-6-(propylthio)benzofuran-2-yl)-3-oxoprop-1-en-1-yl)phenoxy)-2-methylpropanoic acid], the negative logarithm of the EC50 (pEC50) is 6.92.

With `Cc1cc(/C=C/C(=O)c2oc3cc(SCC(C)C)ccc3c2C)cc(C)c1OC(C)(C)C(=O)O` [Compound 76, (E)-2-(4-(3-(6-(isobutylthio)-3-methylbenzofuran-2-yl)-3-oxoprop-1-en-1-yl)-2,6-dimethylphenoxy)-2-methylpropanoic acid], the pEC50 was 7.23.

Turning to `Cc1cc(/C=C/C(=O)c2oc3cc(SC(C)C)ccc3c2C)cc(C)c1OC(C)(C)C(=O)O` [Compound 77, (E)-2-(4-(3-(6-(isopropylthio)-3-methylbenzofuran-2-yl)-3-oxoprop-1-en-1-yl)-2,6-dimethylphenoxy)-2-methylpropanoic acid], the pEC50 was 6.92.

In the case of `CSc1ccc2c(C)c(C(=O)/C=C/c3cc(C)c(OC(C)(C)C(=O)O)c(C)c3)sc2c1` [Compound 82, (E)-2-(2,6-dimethyl-4-(3-(3-methyl-6-(methylthio)benzo[b]thiophen-2-yl)-3-oxoprop-1-en-1-yl)phenoxy)-2-methylpropanoic acid], the pEC50 is 7.15.

Take `CSc1ccc2cc(C(=O)/C=C/c3cc(C)c(OC(C)(C)C(=O)O)c(C)c3)[nH]c2c1` [Compound 88, (E)-2-(2,6-dimethyl-4-(3-(6-(methylthio)-1H-indol-2-yl)-3-oxoprop-1-en-1-yl)phenoxy)-2 methylpropanoic acid]: the negative-log EC50 (pEC50) is 5.61.

As for `CCSc1ccc2c(C)c(C(=O)/C=C/c3cc(C)c(OC(C)(C)C(=O)O)c(C)c3)sc2c1` [Compound 94, (E)-2-(4-(3-(6-(ethylthio)-3-methylbenzo[b]thiophen-2-yl)-3-oxoprop-1-en-1-yl)-2,6-dimethylphenoxy)-2-methylpropanoic acid], the negative logarithm of the EC50 (pEC50) was 7.38.

For the compound `COc1cc(/C=C/C(=O)c2cc3ccc(SC)cc3o2)cc(OC)c1OC(C)(C)C(=O)O` [Compound 99, (E)-2-(2,6-dimethoxy-4-(3-(6-(methylthio)benzofuran-2-yl)-3-oxoprop-1-en-1-yl)phenoxy)-2-methylpropanoic acid], the pEC50 was 7.28.

For `CSc1ccc2cc(C(=O)/C=C/c3cc(C(C)C)c(OC(C)(C)C(=O)O)c(C(C)C)c3)oc2c1` [Compound 101, (E)-2-(2,6-diisopropyl-4-(3-(6-(methylthio)benzofuran-2-yl)-3-oxoprop-1-en-1-yl)phenoxy)-2-methylpropanoic acid], the negative-log EC50 (pEC50) was 6.32.

Consider `COc1cc(/C=C/C(=O)c2oc3cc(SC)ccc3c2C)cc(OC)c1OC(C)(C)C(=O)O` [Compound 102, (E)-2-(2,6-dimethoxy-4-(3-(3-methyl-6-(methylthio)benzofuran-2-yl)-3-oxoprop-1-en-1-yl)phenoxy)-2-methylpropanoic acid], for which the negative logarithm of the EC50 (pEC50) is 6.72.

As for `CSc1ccc2c(C)c(C(=O)/C=C/c3cc(C(C)C)c(OC(C)(C)C(=O)O)c(C(C)C)c3)oc2c1` [Compound 104, (E)-2-(2,6-diisopropyl-4-(3-(3-methyl-6-(methylthio)benzofuran-2-yl)-3-oxoprop-1-en-1-yl)phenoxy)-2-methylpropanoic acid], the pEC50 is 6.42.
